What is called IC50 is the midpoint of a concentration-inhibition curve.

Bounds are passed on as bounds.

This test relates to HCV replication (HCV replicon-containing Huh7/Clone A cells). The test is described as follows: HCV replicon assay. It counts as cell-based. The following applies: Hepatitis C virus, Huh-7, 48 hours incubation, HCV replicon RNA by RT-qPCR normalized to total RNA, read-out: IC50, inhibition of HCV replication. From the text: The HCV replicon assay is a cell-culture system that mimics in vivo HCV replication and provides a system to study HCV replication in vitro. It was created by transfecting cloned viral RNA derived from a consensus HCV genomic sequence into human Huh7 hepatoma cells that are semi-permissive for viral RNA production (Lohmann V., Korner F., Koch J.-0., Herian U., Theilmann L. and Bartenschlager R. (1999). Replication of subgenomic Hepatitis C virus RNAs in a hepatoma cell line. Science 285, 110-113 and Blight K. J., Kolykhalov A. A. and Rice C. M. (2000). Efficient initiation of HCV RNA Replication in cell culture. Science 290, […]). These transfected cell lines contain a subgenomic HCV RNA genome that includes (1) the HCV 5′NTR fused to 12 amino acids of the capsid coding region, (2) the neomycin phosphotransferase gene (Neo) as a selectable marker, (3) the internal ribosome entry site (IRES) from encephalomyocarditis virus (EMCV) that directs translation of HCV non-structural proteins (variously NS2 or NS3 to NS5B), and (4) the 3′ NTR. Replicon-containing cells autonomously and persistently replicate HCV RNA that can be measured quantitatively by real-time qPCR. Therefore, the replicon system facilitates quantitative assessment of anti-viral activity by monitoring changes in HCV RNA replication in a cell-based assay.
HCV replicon-containing cells (Huh7/Clone A) were routinely maintained in Clone A growth medium (DMEM medium [Invitrogen], supplemented with 10% Fetal Bovine Serum, 1% Non Essential Amino Acids and 1 g/L G418). […]
Total RNA eluted in 130 μl of RNase-free dH2O was quantitated by the RiboGreen Assay according to the supplier's protocol (Molecular Probe). […] RNA samples in the black microplate were mixed with 95 μl of diluted RiboGreen reagent (1:250 dilution in TE buffer) and sample fluorescence was measured using a fluorescence microplate reader at standard fluorescein wavelengths (excitation ˜480 nm, emission ˜520 nm). […]
TaqMan quantitative PCR(RT-qPCR) was used to quantitate the amount of HCV replicon RNA in each sample. […]
Take `CCC[C@H](NC(=O)[C@@H]1C[C@@H](Oc2cc(-c3ccccn3)nc3ccsc23)CN1C(=O)[C@@H](NC(=O)NC(C)(C)C)C(C)(C)C)C(=O)C(=O)NC1CC1` [Example 5, (2S,4R)-1-((S)-2-(3-tert-butylureido)-3,3-dimethylbutanoyl)-N—((S)-1-(cyclopropylamino)-1,2-dioxohexan-3-yl)-4-(5-(pyridin-2-yl)thieno[3,2-b]pyridin-7-yloxy)pyrrolidine-2-carboxamide]: the half-inhibitory concentration (IC50) was below 1000 nM.
Regarding `CCC[C@H](NC(=O)[C@@H]1C[C@@H](Oc2nc(-c3ccccn3)nc3sccc23)CN1C(=O)[C@@H](NC(=O)NC(C)(C)C)C(C)(C)C)C(=O)C(=O)NC1CC1` [Example 6, (2S,4R)-1-((S)-2-(3-tert-butylureido)-3,3-dimethylbutanoyl)-N—((S)-1-(cyclopropylamino)-1,2-dioxohexan-3-yl)-4-(2-(pyridin-2-yl)thieno[2,3-d]pyrimidin-4-yloxy)pyrrolidine-2-carboxamide], the 50% inhibitory concentration (IC50) is below 1000 nM.
Turning to `CCC[C@H](NC(=O)[C@@H]1C[C@@H](Oc2nc(-c3ccccn3)nc3ccsc23)CN1C(=O)[C@@H](NC(=O)NC(C)(C)C)C(C)(C)C)C(=O)C(=O)NC1CC1` [Example 7, (2S,4R)-1-((S)-2-(3-tert-butylureido)-3,3-dimethylbutanoyl)-N—((S)-1-(cyclopropylamino)-1,2-dioxohexan-3-yl)-4-(2-(pyridin-2-yl)thieno[3,2-d]pyrimidin-4-yloxy)pyrrolidine-2-carboxamide], the 50% inhibitory concentration (IC50) is below 1000 nM.
